Literature values as cited in publication PMC6906348 (Therapeutic Advances in Medical Oncology, 2019).
Where two headings read alike, the source gives them in different places.

Legend:
[1] = test system: Asian patients with advanced HCC; conditions: cited from earlier work
[2] = test system: patients with unresectable advanced HCC; conditions: cited from earlier work
[3] = test system: patients with unresectable advanced HCC; conditions: cited from earlier work; remark: listed apart in the source
[4] = test system: patients progressing on or after sorafenib treatment (HCC); conditions: cited from earlier work
[5] = test system: patients with advanced HCC; conditions: cited from earlier work
[6] = test system: patients with MET-high HCC; conditions: MET-high HCC defined by IHC ⩾2+ in ⩾50% of tumor cells; cited from earlier work

Question: Which “MET-positive patients with partial responses” value ([1]; MET-positive defined as ⩾50% tumor IHC 2+/3+) does the source give for `CN1CCC(COc2cnc(-c3cccc(Cn4nc(-c5cccc(C#N)c5)ccc4=O)c3)nc2)CC1` [tepotinib] here?
Answer: The value was 2/7.

Question: What about the “patients with partial responses” value ([1]; unselected patients, 2/27) of the same compound?
Answer: The value was 7.4%.

Question: What about the disease control rate ([1]; unselected patients) of the same compound?
Answer: Its disease control rate is 37%.

Question: For `CNC(=O)c1cc(Oc2ccc(NC(=O)Nc3ccc(Cl)c(C(F)(F)F)c3)cc2)ccn1` [sorafenib], which “hazard ratio (HR), overall survival” value ([2]; sorafenib group versus placebo) is on record?
Answer: Its value is 0.69.

Question: And the overall response rate ([2]; versus 1% for placebo)?
Answer: Its overall response rate is 2%.

Question: What about the “median time to progression (TTP)” value ([2]; versus 2.8 months for placebo) of the same compound?
Answer: Its value is 5.5 months.

Question: And the median overall survival ([2]; versus 7.9 months for placebo)?
Answer: Its median overall survival is 10.7 months.

Question: What about the disease control rate ([2]; versus 32% for placebo) of the same compound?
Answer: The disease control rate was 43%.

Question: What about the “HR, overall survival” value ([3]; sorafenib group versus placebo) of the same compound?
Answer: Its value is 0.68.

Question: And the median overall survival ([3]; versus 4.2 months for placebo)?
Answer: Its median overall survival is 6.5 months.

Question: Which overall response rate ([4]; versus 4% in the placebo arm) does the source give for `CNC(=O)c1cc(Oc2ccc(NC(=O)Nc3ccc(Cl)c(C(F)(F)F)c3)c(F)c2)ccn1` [regorafenib] here?
Answer: The overall response rate was 11%.

Question: What about the overall survival ([4]; versus 7.8 months for placebo) of the same compound?
Answer: The overall survival was 10.6 months.

Question: With nivolumab as the compound, how does the overall response rate ([5]; all patients) read?
Answer: The overall response rate was 20%.

Question: And the overall response rate ([5]; sorafenib-treated patients)?
Answer: The overall response rate was 14%.

Question: With `O=C1NC(=O)[C@@H](c2cn3c4c(cccc24)CCC3)[C@@H]1c1c[nH]c2ccccc12` [tivantinib] as the compound, how does the study outcome [6] read?
Answer: Its study outcome is “negative”.
